Results as given in patent US5620416A, “Methods of using topical agents with systemically administered active agents” (priority 1995, dated 1997).

Experiment: Skin CDDP concentration after iontophoresis of a vasoactive agent with intravenous cisplatin infusion
Format: in vivo, female weanling Yorkshire pigs
Description: The ability of iontophoretically-delivered, vasoactive compounds to affect local cutaneous concentrations of a systemically delivered active agent was investigated in female weanling Yorkshire pigs. The effect of the timing of iontophoresis on tissue deposition of active agent was also investigated.
Study animals were assigned to receive iontophoresis either prior to, or after, attaining steady-state systemic concentrations of cisplatin (cisdiaminedichloroplatinum, CDDP). The iontophoresed agent was either a peripheral vasodilator (tolazoline), peripheral vasoconstrictor (norepinephrine), or saline.
Subjects were sedated with intramuscular ketamine/xylazine, and anesthesia was maintained with intravenous thiamylal. In each subject the inguinal area was divided into four quadrants, three of which received iontophoresis. One quadrant received iontophoresis of 0.4% tolazoline HCl (TOL); one received iontophoresis of 0.4% norepinephrine HCl (NOR); and one received iontophoresis of 50% saturated saline (SAL). The remaining quadrant served as a control (CON) and was not subjected to iontophoresis.
Iontophoretic current density was 0.2 mAmp/cm^2. Cisplatin (1.0 mg/ml) was infused via the saphenous vein at a rate of 0.03 mg/kg/min. […]

skin CDDP concentrations among skin samples (in words) (iontophoresis after reaching steady-state CDDP, control, tolazoline, norepinephrine and saline electrodes): did not vary significantly | skin CDDP concentration vs control skin (in words) (iontophoresis prior to steady-state CDDP, tolazoline p=0.01, norepinephrine p<0.001): significantly lower
Structure (SMILES): NC[C@H](O)c1ccc(O)c(O)c1 [Norepinephrine, norepinephrine]
